Where a name gives a salt, the structure may show the parent alone.
System: C. albicans E81022 strain
Assay: Experimental systemic candidal infection model in mice
Assay type: in vivo
Details: peroral (into the stomach), female ICR mice infected i.v. with C. albicans E81022, observed until 14 days after infection
Experimental: 1. Experimental Systemic Candidal Infection Model in Mice
A standing culture of C. albicans E81022 strain was carried out for 48 hours at 30° C in sabouraud dextrose agar medium (SDA), the recovered fungal cells were suspended in sterilized physiological saline. By counting the fungal number on cytometry plate, the suspension was diluted to 2×10^7 cells/mL with sterilized physiological saline to serve fungal inoculum.
The fungal inoculum was used in the amounts of 0.2 mL to inoculate 4.5 to 5.5 week-old female ICR mice in the tail vein (4×10^6 cells/mouse).
From 0.5 and 1 hours after fungal inoculation, 0.2 mL of agent solution (compound of Reference Example 1 dissolved to 5 mg/ml in 50 mM hydrochloric acid, diluted suitably in sterile water, and then, diluted 10-fold in 5% fructose solution) was administered into the stomach using a peroral probe twice every 6 hours. […]
The protective effect was determined by observing lifeldeath until 14 days after infection and calculating the mean survival days.

Nc1ncccc1-c1cc(Cc2ccc(COc3ccccn3)cc2)no1 [Hydrochloride of Reference Example 1, 3-(3-(4-(Pyridin-2-yloxymethyl)-benzyl)-isoxazol-5-yl)-pyridin-2-yl amine]
Mean Survival Days (2.5 mg/kg): 11.0 days
Mean Survival Days (5 mg/kg): 13.4 days

— patent US8058444B2, “Heterocycle-substituted pyridine derivative's salt or crystal thereof” (Eisai R&D Management Co., Ltd., priority 2007, dated 2011)
